Measurements from patent US9139576B2, “Aminomethyl biaryl benzotriazole derivatives” (Merck Sharp & Dohme Corp., priority 2011, dated 2015).

Molecular target: T1, recombinant human mGluR2 (Homo sapiens, UniProt Q14416)
T1 construct: expressed in transfected cells
Assay: FLIPR Ca2+ mobilization assay, potentiation of mGluR2
Format: cell-based
Conditions: potentiation with EC20 glutamate (900 nM); CHO dhfr- cells expressing human mGluR2 and Gα16
Procedure: Potencies are determined as follows. The compounds of the present invention may be tested in a fluorescence laser imaging plate reader (FLIPR) based assay. This assay is a common functional assay to monitor Ca^2+ mobilization in whole cells expressing recombinant receptor coupled with a promiscuous G-protein. CHO dhfr-cells stably expressing recombinant human mGluR2 and Gα16 loaded with Fluo-4 AM (Invitrogen, Carlsbad Calif.) are treated with varying concentrations of compounds and the Ca^2+ response is monitored on a FLIPR384 (Molecular Devices, Sunnydale Calif.) for agonist activity. The potentiation response is monitored after a subsequent addition of an EC20 concentration of glutamate (900 nM). The maximum calcium response at each concentration of compound for agonism or potentiation are plotted as dose responses curves fitted with a four parameters logistic equation giving EC50 and Hill coefficient using the iterative non linear curve fitting software program.

T1 sequence (Q14416 19-872): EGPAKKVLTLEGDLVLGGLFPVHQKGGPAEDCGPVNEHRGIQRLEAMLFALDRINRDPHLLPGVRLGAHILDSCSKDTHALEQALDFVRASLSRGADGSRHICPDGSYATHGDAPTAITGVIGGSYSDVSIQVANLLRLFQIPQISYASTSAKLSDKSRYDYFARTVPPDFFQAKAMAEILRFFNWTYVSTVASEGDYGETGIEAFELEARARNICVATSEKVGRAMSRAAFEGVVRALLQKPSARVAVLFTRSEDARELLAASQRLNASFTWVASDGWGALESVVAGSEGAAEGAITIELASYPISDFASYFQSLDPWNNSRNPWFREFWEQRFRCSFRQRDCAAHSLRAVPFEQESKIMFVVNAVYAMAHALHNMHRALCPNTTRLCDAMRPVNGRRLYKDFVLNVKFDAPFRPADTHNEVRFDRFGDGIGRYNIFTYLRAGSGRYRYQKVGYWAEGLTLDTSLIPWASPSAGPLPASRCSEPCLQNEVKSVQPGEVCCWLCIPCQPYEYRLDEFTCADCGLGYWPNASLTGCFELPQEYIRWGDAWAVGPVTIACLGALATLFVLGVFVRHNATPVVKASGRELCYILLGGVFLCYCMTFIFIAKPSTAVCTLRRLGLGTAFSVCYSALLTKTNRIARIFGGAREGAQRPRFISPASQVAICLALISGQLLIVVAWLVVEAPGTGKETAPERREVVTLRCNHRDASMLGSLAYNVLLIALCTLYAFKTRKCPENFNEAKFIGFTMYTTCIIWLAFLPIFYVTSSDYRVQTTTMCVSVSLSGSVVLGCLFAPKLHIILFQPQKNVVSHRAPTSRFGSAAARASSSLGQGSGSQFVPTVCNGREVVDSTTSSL

Structure (SMILES)	EC50
CSc1c(-c2ccc(CN3CC(=O)N(C)C3=O)c(F)c2)ccc2c1nnn2CC1CC1 [Example 15, 1-{4-[1-(Cyclopropylmethyl)-4-(methylsulfanyl)-1H-benzotriazol-5-yl]-2-fluorobenzyl}-3-methylimidazolidine-2,4-dione]	6.6 nM
CN1C(=O)CN(Cc2ccc(-c3ccc4c(nnn4CC4CC4)c3CO)cc2)C1=O [Example 21, 1-{4-[1-(Cyclopropylmethyl)-4-(hydroxymethyl)-1H-benzotriazol-5-yl]benzyl}-3-methylimidazolidine-2,4-dione]	841 nM
CC(C)Cn1nnc2c(Br)c(-c3ccc(CN4CC(=O)N(C)C4=O)cc3)ccc21 [Example 8, 1-{4-[4-Bromo-1-(2-methylpropyl)-1H-benzotriazol-5-yl]benzyl}-3-methylimidazolidine-2,4-dione]	3 nM
O=C1CN(Cc2ccc(-c3ccc4c(nnn4CC4CC4)c3C(F)(F)F)cc2)C(=O)N1 [Example 4, 1-{4-[1-(Cyclopropylmethyl)-4-(trifluoromethyl)-1H-benzotriazol-5-yl]benzyl}imidazolidine-2,4-dione]	9.21 nM
CN1C(=O)CN(Cc2ccc(-c3ccc4c(nnn4CC4CC4)c3C(F)(F)F)cc2)C1=O [Example 2, 1-{4-[1-(Cyclopropylmethyl)-4-(trifluoromethyl)-1H-benzotriazol-5-yl]benzyl}-3-methylimidazolidine-2,4-dione]	5.8 nM
Clc1c(-c2ccc(CN3CCNCC3)cc2)ccc2c1nnn2CC1CC1 [Example 71, 4-Chloro-1-(cyclopropylmethyl)-5-[4-(piperazin-1-ylmethyl)phenyl]-1H-benzotriazole]	234 nM
CC(C)Cn1nnc2c(C(F)(F)F)c(-c3ccc(CN4CC(=O)N(C)C4=O)cc3)ccc21 [Example 9, 3-Methyl-1-{4-[1-(2-methylpropyl)-4-(trifluoromethyl)-1H-benzotriazol-5-yl]benzyl}imidazolidine-2,4-dione]	6.1 nM
Cn1c(=O)[nH]n(Cc2ccc(-c3ccc4c(nnn4CC(C)(C)C)c3Br)cc2)c1=O [Example 7, 1-{4-[4-Bromo-1-(2,2-dimethylpropyl)-1H-benzotriazol-5-yl]benzyl}-4-methyl-1,2,4-triazolidine-3,5-dione]	532 nM
CN1C(=O)CN(Cc2ccc(-c3ccc4c(nnn4CC4CC4)c3S(C)(=O)=O)cc2F)C1=O [Example 16, 1-{4-[1-(Cyclopropylmethyl)-4-(methylsulfonyl)-1H-benzotriazol-5-yl]-2-fluorobenzyl}-3-methylimidazolidine-2,4-dione]	245 nM
CCOC(=O)CNC(=O)NCc1ccc(-c2ccc3c(nnn3CC3CC3)c2Cl)cc1 [Example 83, Ethyl N-({4-[4-chloro-1-(cyclopropylmethyl)-1H-benzotriazol-5-yl]benzyl}carbamoyl)glycinate]	124 nM
CN1C(=O)CN(Cc2ccc(-c3ccc4c(nnn4CC4CC4)c3CF)cc2)C1=O [Example 22, 1-{4-[1-(Cyclopropylmethyl)-4-(fluoromethyl)-1H-benzotriazol-5-yl]benzyl}-3-methylimidazolidine-2,4-dione]	14 nM
C[C@@H](O)C(=O)NCc1ccc(-c2ccc3c(nnn3CC3CC3)c2Cl)cc1 [Example 39, (2R)—N-{4-[4-chloro-1-(cyclopropylmethyl)-1H-benzotriazol-5-yl]benzyl}-2-hydroxypropanamide]	49 nM
CN1C(=O)CN(Cc2ccc(-c3ccc4c(nnn4CC4CC4)c3C(F)(F)F)c(F)n2)C1=O [Example 1, 1-({5-[1-(Cyclopropylmethyl)-4-(trifluoromethyl)-1H-benzotriazol-5-yl]-6-fluoropyridin-2-yl}methyl)-3-methylimidazolidine-2,4-dione]	17.3 nM
[N-]=[N+]=NCc1ccc(-c2ccc3c(nnn3CC3CC3)c2Cl)cc1 [Example 37, 5-[4-(Azidomethyl)phenyl]-4-chloro-1-(cyclopropylmethyl)-1H-benzotriazole]	53 nM
N#CCC(=O)N1CCN(Cc2ccc(-c3ccc4c(nnn4CC4CC4)c3Cl)cc2)CC1 [Example 72, 3-(4-{4-[4-Chloro-1-(cyclopropylmethyl)-1H-benzotriazol-5-yl]benzyl}piperazin-1-yl)-3-oxopropanenitrile]	30.4 nM
CN1C(=O)CN(Cc2ccc(-c3ccc4c(c3)nnn4CC3CC3)cc2)C1=O [Example 28, 1-{4-[1-(Cyclopropylmethyl)-1H-benzotriazol-5-yl]benzyl}-3-methylimidazolidine-2,4-dione]	196 nM
CC(C)(C)OC(=O)N1CCN(Cc2ccc(-c3ccc4c(nnn4CC4CC4)c3Cl)cc2)CC1 [Example 52, tert-Butyl 4-{4-[4-chloro-1-(cyclopropylmethyl)-1H-benzotriazol-5-yl]benzyl}piperazine-1-carboxylate]	80 nM
C[C@H](O)C(=O)NCc1ccc(-c2ccc3c(nnn3CC3CC3)c2C(F)(F)F)cc1 [Example 5, (2S)—N-{4-[1-(Cyclopropylmethyl)-4-(trifluoromethyl)-1H-benzotriazol-5-yl]benzyl}-2-hydroxypropanamide]	59.1 nM
CN1C(=O)CN(Cc2ccc(-c3ccc4c(nnn4CC4CC4)c3Cl)cc2)C1=O [Example 29, 1-{4-[4-Chloro-1-(cyclopropylmethyl)-1H-benzotriazol-5-yl]benzyl}-3-methylimidazolidine-2,4-dione]	11.4 nM
CN1C(=O)CN(Cc2ccc(-c3ccc4c(nnn4CC4CC4)c3[S+](C)[O-])cc2F)C1=O (stereo not shown) [Example 17, 1-{4-[1-(Cyclopropylmethyl)-4-(methylsulfinyl)-1H-benzotriazol-5-yl]-2-fluorobenzyl}-3-methylimidazolidine-2,4-dione]	1250 nM
O=C1CNC(=O)N1Cc1ccc(-c2ccc3c(nnn3CC3CC3)c2Cl)cc1 [Example 84, 3-{4-[4-Chloro-1-(cyclopropylmethyl)-1H-benzotriazol-5-yl]benzyl}imidazolidine-2,4-dione]	34.9 nM
CN1C(=O)CN(Cc2ccc(-c3ccc4c(nnn4CC4CC4)c3Br)cc2)C1=O [Example 10, 1-{4-[4-Bromo-1-(cyclopropylmethyl)-1H-benzotriazol-5-yl]benzyl}-3-methylimidazolidine-2,4-dione]	5.3 nM
O=C1CN(Cc2ccc(-c3ccc4c(nnn4CC4CC4)c3Cl)cc2)C(=O)N1 [Example 51, 1-{4-[4-Chloro-1-(cyclopropylmethyl)-1H-benzotriazol-5-yl]benzyl}imidazolidine-2,4-dione]	11.4 nM
CN1C(=O)CN(Cc2ccc(-c3ccc4c(nnn4CC4CC4)c3C=O)cc2)C1=O [Example 20, 1-(Cyclopropylmethyl)-5-{4-[(3-methyl-2,4-dioxoimidazolidin-1-yl)methyl]phenyl}-1H-benzotriazole-4-carbaldehyde]	56 nM
CN1C(=O)CN(Cc2ccc(-c3ccc4c(nnn4CC4CC4)c3C#N)cc2)C1=O [Example 18, 1-(Cyclopropylmethyl)-5-{4-[(3-methyl-2,4-dioxoimidazolidin-1-yl)methyl]phenyl}-1H-benzotriazole-4-carbonitrile]	39 nM
CN1CC(=O)N(Cc2ccc(-c3ccc4c(nnn4CC4CC4)c3Cl)cc2)C1=O [Example 85, 3-{4-[4-Chloro-1-(cyclopropylmethyl)-1H-benzotriazol-5-yl]benzyl}-1-methylimidazolidine-2,4-dione]	8.9 nM
CCc1c(-c2ccc(CN3CC(=O)N(C)C3=O)cc2)ccc2c1nnn2CC1CC1 [Example 19, 1-{4-[1-(Cyclopropylmethyl)-4-ethyl-1H-benzotriazol-5-yl]benzyl}-3-methylimidazolidine-2,4-dione]	7.8 nM
NCc1ccc(-c2ccc3c(nnn3CC3CC3)c2Cl)cc1 [Example 38, 1-{4-[4-Chloro-1-(cyclopropylmethyl)-1H-benzotriazol-5-yl]phenyl}methanamine]	2320 nM
